Patent publication US10870625B2, “Zwitterionic propargyl-linked antifolates useful for treating bacterial infections” (THE UNIVERSITY OF CONNECTICUT, priority 2016, dated 2020)
Converted amounts (≈) assume the structure as drawn.

Columns and labels:
E. coli NR698 = format: cell-based, Escherichia coli; details: Table 2
S. aureus (Sa) DHFR = S. aureus (Sa) DHFR (Staphylococcus aureus, UniProt P0A017); format: biochemical; details: Table 2
human (Hu) DHFR = human (Hu) DHFR (Homo sapiens (Human), UniProt P00374); test: Human DHFR enzyme inhibition (Example 5); format: biochemical; details: Table 2
E. coli (Ec) DHFR = E. coli (Ec) DHFR (Escherichia coli (strain K12), UniProt P0ABQ4); test: E. coli DHFR enzyme inhibition (NADPH oxidation, 340 nm); format: biochemical; details: Table 2
[1] = tested on: S. aureus ATCC strain 43300; test: microbe, parasite or virus in culture; format: cell-based, Staphylococcus aureus
Mtb = test: M. tuberculosis MIC, microtiter broth dilution (Table 6); format: cell-based, Mycobacterium tuberculosis
Procedure: (provided by Leonid Heifets).
Each isolate was tested in duplicate.

E. coli (ATCC 25922) = test: E. coli MIC, microdilution broth assay; format: cell-based, Escherichia coli; details: Table 2; wild-type E. coli
Procedure: Minimum inhibitory concentrations were determined using E. coli (ATCC 25922) and the microdilution broth assay with an inoculum of […] CFU/mL in Isosensitest Broth (Oxoid).

MtbDHFR = MtbDHFR (Mycobacterium tuberculosis (strain ATCC 25618 / H37Rv), UniProt P9WNX1); details: data from Nixon et al., Chem. Biol. (2014); cited from earlier work

| SMILES | MIC E. coli NR698 (E. coli NR698) | IC50 (S. aureus (Sa) DHFR) | IC50 (human (Hu) DHFR) | IC50 (E. coli (Ec) DHFR) | MIC S. aureus 43300 [1] | MIC Sa43300 ([1]; Table 12, wild-type strain) | MIC Mtb (Mtb) | MIC Sa(H30N) (Sa(H30N) strain) | MIC E. coli 25922 (E. coli (ATCC 25922)) | IC50 (MtbDHFR) | MIC (Mtb; Mycobacterium tuberculosis) |
| --- | --- | --- | --- | --- | --- | --- | --- | --- | --- | --- | --- |
| CCc1nc(N)nc(N)c1C#CC(SC)c1cc(-c2ccc(C(=O)O)cc2)ccc1OC (centres unmarked) [Compound 29] | 0.0391 µg/mL (≈ 0.0872 µM) | 37 nM | 266 nM | 177 nM | 0.625 µg/mL (≈ 1.39 µM) | 0.0391 µg/mL (≈ 0.0872 µM) | 0.5 µg/mL (≈ 1.11 µM) | 0.1563 µg/mL (≈ 0.348 µM) | >20 µg/mL | – | – |
| COc1cc(NCc2ccc3nc(N)nc(N)c3c2C)cc(OC)c1OC [Trimetrexate, trimetrexate, reference compound] | – | – | – | – | – | – | – | – | – | 17 nM | 4 µg/mL (≈ 10.8 µM) |
